Experimental data from ChEMBL document CHEMBL1127939, “Non-peptide fibrinogen receptor antagonists. 3. design and discovery of a centrally constrained inhibitor” (Bioorg Med Chem Lett, 1994).
Activity calls are given as the source filed them. The rule behind the calls is not given here.

Experiments:
[1] = test system: HUVEC; experiment: Inhibition of human umbilical vein endothelial cell (HUVEC) adhesion to vitronectin at 300 uM (No inhibition); format: cell-based
[2] = biological target: Integrin alpha-5/beta-1 (Homo sapiens) (UniProt P05556+P08648); experiment: Inhibition of human umbilical vein endothelial cell (HUVEC) adhesion to fibronectin at 300 uM (No inhibition); format: cell-based
[3] = test system: Canis familiaris; experiment: Ex vivo percent inhibition of platelet aggregation at oral dose of 2 mg/kg after 140 min; format: functional; settings: Canis lupus familiaris
[4] = biological target: Integrin alpha-IIb/beta-3 (Homo sapiens) (UniProt P05106+P08514); experiment: Inhibition of human umbilical vein endothelial cell (HUVEC) adhesion to fibrinogen at 300 uM (No inhibition); format: cell-based
[5] = test system: Canis familiaris; experiment: Ex vivo percent inhibition of platelet aggregation at oral dose of 4 mg/kg after 480 min; format: functional; settings: Canis lupus familiaris, 8 h

inhibition [2]: inactive
inhibition [4]: inactive
Structure (SMILES): O=C(O)CCNC(=O)c1ccc2c(c1)C(=O)N(CCC1CCNCC1)C2
inhibition [1]: inactive
inhibition in vivo at 2 mg/kg [3]: 65%
inhibition in vivo at 4 mg/kg [5]: 90%
